Results: ChEMBL document CHEMBL5465560, “Selectivity Literature for EUbOPEN Chemogenomic Library” (2024)

Experiments:
[1] = target: T1, Serine/threonine-protein kinase Nek8 (Homo sapiens) (UniProt Q86SG6); assay: Selectivity interaction (LanthaScreen Eu Kinase Binding Assay) EUB0001632a NEK8; details: at 10 µM
T1 sequence (whole entry): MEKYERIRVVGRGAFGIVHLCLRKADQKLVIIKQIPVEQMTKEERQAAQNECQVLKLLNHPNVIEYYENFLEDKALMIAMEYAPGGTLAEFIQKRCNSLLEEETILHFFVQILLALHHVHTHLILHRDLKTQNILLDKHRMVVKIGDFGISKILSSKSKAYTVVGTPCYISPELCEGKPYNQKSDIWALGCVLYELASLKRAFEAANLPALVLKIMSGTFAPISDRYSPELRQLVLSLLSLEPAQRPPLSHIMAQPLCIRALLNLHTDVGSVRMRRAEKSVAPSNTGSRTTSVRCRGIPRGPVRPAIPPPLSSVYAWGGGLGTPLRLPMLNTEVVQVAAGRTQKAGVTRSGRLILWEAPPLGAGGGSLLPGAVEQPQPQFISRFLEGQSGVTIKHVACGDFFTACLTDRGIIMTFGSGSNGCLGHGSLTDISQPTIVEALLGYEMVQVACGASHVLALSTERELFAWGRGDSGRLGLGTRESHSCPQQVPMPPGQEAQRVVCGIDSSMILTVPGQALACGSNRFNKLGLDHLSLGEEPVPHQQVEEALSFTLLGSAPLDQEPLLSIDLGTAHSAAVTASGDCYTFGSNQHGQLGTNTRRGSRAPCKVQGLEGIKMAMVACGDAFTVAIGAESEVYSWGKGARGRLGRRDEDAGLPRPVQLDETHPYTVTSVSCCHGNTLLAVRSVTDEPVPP

[2] = target: T2, Ephrin type-A receptor 8 (Homo sapiens) (UniProt P29322); assay: Selectivity interaction (Kinase panel (Z-LYTE Assay)) EUB0001632a EPHA8; details: at 10 µM
T2 sequence (whole entry): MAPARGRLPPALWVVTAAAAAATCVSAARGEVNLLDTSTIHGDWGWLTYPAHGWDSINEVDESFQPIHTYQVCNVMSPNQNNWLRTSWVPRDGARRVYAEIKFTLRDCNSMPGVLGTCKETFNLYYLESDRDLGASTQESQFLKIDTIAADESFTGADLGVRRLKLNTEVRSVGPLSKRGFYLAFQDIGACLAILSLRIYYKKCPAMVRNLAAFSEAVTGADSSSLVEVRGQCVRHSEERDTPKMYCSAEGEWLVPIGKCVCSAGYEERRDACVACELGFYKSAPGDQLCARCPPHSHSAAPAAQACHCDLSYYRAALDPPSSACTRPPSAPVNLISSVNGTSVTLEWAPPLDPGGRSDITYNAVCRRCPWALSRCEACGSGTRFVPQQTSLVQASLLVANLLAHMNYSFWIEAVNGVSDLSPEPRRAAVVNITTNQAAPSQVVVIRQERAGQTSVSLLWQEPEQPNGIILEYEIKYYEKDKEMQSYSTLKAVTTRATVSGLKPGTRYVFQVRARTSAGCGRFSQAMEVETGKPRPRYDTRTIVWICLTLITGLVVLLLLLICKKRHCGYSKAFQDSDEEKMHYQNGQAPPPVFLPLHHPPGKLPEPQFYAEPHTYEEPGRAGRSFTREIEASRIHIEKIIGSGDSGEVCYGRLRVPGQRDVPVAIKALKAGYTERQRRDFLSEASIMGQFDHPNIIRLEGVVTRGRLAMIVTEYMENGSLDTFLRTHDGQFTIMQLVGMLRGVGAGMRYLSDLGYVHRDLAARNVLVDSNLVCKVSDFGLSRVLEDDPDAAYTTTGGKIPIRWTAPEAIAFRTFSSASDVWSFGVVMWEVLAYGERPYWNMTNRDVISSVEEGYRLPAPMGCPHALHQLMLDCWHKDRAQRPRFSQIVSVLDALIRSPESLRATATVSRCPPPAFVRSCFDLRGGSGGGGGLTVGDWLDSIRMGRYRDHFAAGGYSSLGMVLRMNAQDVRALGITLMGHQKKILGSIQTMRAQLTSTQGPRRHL

[3] = target: Bromodomain-containing protein 4 (Homo sapiens, UniProt O60885); assay: Selectivity interaction (Bromodomain panel (DSF asssay)) EUB0000270b BRD4
[4] = target: Calcium/calmodulin-dependent protein kinase type II subunit alpha (Homo sapiens, UniProt Q9UQM7); assay: Selectivity interaction (ActivX KiNativ screen (kinase selectivity in THP-1 cell lysates)) EUB0000639a CAMK2A; type: subcellular; details: lysate
[5] = target: Protein kinase C theta type (Homo sapiens, UniProt Q04759); details: at 10 µM
[6] = target: T3, Serine/threonine-protein kinase Nek11 (Homo sapiens) (UniProt Q8NG66); assay: Selectivity interaction (KinomeScan (DiscoverX)) EUB0000092b NEK11; details: at 10 µM
T3 sequence (whole entry): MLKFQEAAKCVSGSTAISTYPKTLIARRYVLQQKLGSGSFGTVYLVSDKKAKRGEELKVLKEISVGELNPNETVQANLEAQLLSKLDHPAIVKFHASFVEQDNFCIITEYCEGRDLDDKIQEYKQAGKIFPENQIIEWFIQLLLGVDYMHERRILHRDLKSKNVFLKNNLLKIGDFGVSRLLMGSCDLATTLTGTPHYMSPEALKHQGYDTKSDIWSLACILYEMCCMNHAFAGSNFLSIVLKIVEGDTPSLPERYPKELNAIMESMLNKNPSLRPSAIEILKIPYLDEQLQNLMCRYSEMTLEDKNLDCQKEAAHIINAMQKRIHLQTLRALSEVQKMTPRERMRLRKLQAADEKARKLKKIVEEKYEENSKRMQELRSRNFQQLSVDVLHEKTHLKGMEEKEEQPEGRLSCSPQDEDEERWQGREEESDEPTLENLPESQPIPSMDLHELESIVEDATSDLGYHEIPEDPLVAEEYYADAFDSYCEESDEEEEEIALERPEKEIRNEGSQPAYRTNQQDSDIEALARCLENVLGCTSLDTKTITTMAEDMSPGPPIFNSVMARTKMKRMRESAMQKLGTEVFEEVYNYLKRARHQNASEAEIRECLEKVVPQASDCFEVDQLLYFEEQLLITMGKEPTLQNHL

Calcium/calmodulin-dependent protein kinase type II subunit alpha, sequence (Q9UQM7 whole entry): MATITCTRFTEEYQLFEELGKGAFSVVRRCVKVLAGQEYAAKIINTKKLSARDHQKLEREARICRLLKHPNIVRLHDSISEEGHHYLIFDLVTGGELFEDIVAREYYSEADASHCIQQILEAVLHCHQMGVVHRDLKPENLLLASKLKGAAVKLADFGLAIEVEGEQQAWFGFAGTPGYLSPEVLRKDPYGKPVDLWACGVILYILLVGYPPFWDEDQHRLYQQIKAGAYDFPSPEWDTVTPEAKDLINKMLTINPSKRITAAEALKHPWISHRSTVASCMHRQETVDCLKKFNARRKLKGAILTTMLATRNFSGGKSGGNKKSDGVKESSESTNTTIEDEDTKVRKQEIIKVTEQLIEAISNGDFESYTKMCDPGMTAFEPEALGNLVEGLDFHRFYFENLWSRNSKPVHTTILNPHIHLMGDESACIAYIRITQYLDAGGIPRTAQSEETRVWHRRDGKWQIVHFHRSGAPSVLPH
Protein kinase C theta type, sequence (Q04759 whole entry, looked up): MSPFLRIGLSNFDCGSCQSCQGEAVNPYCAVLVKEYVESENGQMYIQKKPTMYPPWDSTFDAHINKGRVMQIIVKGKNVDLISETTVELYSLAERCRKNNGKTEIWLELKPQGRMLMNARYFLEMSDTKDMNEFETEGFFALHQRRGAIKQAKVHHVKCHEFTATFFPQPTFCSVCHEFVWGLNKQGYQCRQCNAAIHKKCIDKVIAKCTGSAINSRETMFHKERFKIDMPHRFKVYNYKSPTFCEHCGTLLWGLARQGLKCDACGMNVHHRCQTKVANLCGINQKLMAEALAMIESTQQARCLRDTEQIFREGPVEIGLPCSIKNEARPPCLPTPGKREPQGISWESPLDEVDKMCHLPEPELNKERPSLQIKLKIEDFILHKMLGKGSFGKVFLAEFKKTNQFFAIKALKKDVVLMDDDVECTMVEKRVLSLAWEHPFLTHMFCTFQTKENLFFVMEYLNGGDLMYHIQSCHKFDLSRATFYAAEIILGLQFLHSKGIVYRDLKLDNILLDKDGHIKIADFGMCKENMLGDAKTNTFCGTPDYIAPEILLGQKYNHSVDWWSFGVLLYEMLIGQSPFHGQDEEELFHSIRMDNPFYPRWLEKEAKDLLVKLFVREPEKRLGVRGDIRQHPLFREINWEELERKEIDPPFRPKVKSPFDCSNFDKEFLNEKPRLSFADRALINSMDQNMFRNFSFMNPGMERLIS

**Q.** How did the % of inhibition [1] turn out when `Cn1cc(-n2cnc3c(NCc4nc5cc(Cl)c(Cl)cc5[nH]4)nc(N4CCOCC4)nc32)cn1` was run?
**A.** -38.3%

**Q.** What about the % of control [2] of the same compound?
**A.** -0.692%

**Q.** Which dTM [3] does the source give for `Cc1cc(CN)cc(C)c1-c1ncn(C)c1-c1cncn1C` here?
**A.** -0.92 K

**Q.** How did the % of inhibition ([4]; at 0.01 µM) turn out when `CC[C@@H]1[C@H](F)C(=O)N[C@@H]1COc1nccc2cc(C(N)=O)c(OC)cc12` [ZIMLOVISERTIB] was run?
**A.** 3.3%

**Q.** And the % of inhibition ([4]; at 0.04 µM)?
**A.** 16.7%

**Q.** And the % of inhibition ([4]; at 0.2 µM)?
**A.** 6.9%

**Q.** And the % of inhibition ([4]; at 1 µM)?
**A.** 25.1%

**Q.** What about the % of inhibition ([4]; at 5 µM) of the same compound?
**A.** 56.2%

**Q.** How did the % of control [5] turn out when `CCN(CC)CCCCNc1ncc2cc(-c3cc(OC)cc(OC)c3)c(NC(=O)NC(C)(C)C)nc2n1` was run?
**A.** 100%

**Q.** For `CCC(=O)N1CCN(c2ccc(-n3c(=O)ccc4cnc5ccc(-c6cnc7ccccc7c6)cc5c43)cc2C(F)(F)F)CC1`, which % of control [6] is on record?
**A.** 65%
